These results are taken from patent US20260256807A1, “SUBSTITUTED PYRAZOLES AND IMIDAZOLES AS OREXIN RECEPTOR ANTAGONISTS COMPOSITION, METHODS FOR TREATING NEUROLOGICAL AND PSYCHOLOGICAL DISORDERS” (HAGER BIOSCIENCES, LLC, priority 2022, published 2026).

One assay addresses T1, human orexin-2 receptor (Homo sapiens, UniProt O43614).
T1 construct: expressed in transfected cells; host or cells: CHO cells (G418 selection)
T1 sequence (O43614 1-444): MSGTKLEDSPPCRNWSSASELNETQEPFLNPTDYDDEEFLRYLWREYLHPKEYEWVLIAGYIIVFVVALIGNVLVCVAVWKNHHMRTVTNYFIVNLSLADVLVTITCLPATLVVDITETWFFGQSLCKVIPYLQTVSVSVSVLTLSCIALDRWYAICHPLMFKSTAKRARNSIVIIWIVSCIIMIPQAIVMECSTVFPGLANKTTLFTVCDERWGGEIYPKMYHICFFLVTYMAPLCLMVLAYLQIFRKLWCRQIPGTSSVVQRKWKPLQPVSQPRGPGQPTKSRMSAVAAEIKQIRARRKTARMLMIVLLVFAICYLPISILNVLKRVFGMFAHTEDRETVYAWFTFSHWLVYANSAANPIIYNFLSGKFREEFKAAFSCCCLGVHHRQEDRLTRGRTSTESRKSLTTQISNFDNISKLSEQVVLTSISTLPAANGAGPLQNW
In words: Intracellular calcium (FLIPR) antagonist assay, CHO cells expressing human orexin-2 receptor, 3 nM orexin-A. As to conditions: 1 uM compound, orexin-A 3 nM. The assay is classed as cell-based. For orientation: Calcium assays in cells follow changes in intracellular calcium, usually with a dye or a luminescent sensor.
With `COc1ccc(N2CC[C@@H](C)N(C(=O)c3c(-c4ccccn4)nn4ccccc34)CC2)nc1` [Example 93], the “OX2R % Inh. @ 1uM” value amounted to 33%.

The same assay, now with this note: CHO, 1 uM compound, orexin-A 3 nM, read-out: OX2R % Inh. @ 1uM.
Regarding `C[C@@H]1CCN(c2ccc(C(F)(F)F)cn2)CCN1C(=O)c1c(-c2ccccc2)nn2c1COCC2` [Example 18], the inhibition at 1 µM came out at 35.5%.
Consider `Cc1cc(C)nc(N2CC3CN(C(=O)c4c(-c5ccccc5F)nn5ccccc45)CC3C2)n1` (stereo not drawn) [Example 44], for which the inhibition at 1 µM was determined as 56.1%.
As to `O=C(c1c(-c2ccc(F)cc2)nn2ccccc12)N1CC2CN(c3ccc(C(F)(F)F)cn3)CC2C1` (stereo not drawn) [Example 46], the inhibition at 1 µM is 14.6%.
As for `COc1ccc(N2CC[C@@H](C)N(C(=O)c3c(-c4ncccn4)nn4ccccc34)CC2)nc1` [Example 92], the inhibition at 1 µM amounted to 13%.
Turning to `C[C@@H]1CCN(c2cnc(C(F)(F)F)cn2)CCN1C(=O)c1nn2cccnc2c1-c1ccccc1` [Example 85], the inhibition at 1 µM was found to be 52%.
As for `COc1ccc(N2CC[C@@H](C)N(C(=O)c3c(-c4ccccc4)nn4c3COCC4)CC2)nn1` [Example 11], the inhibition at 1 µM is 21.5%.
In the case of `C[C@@H]1CCN(c2nc3cc(Cl)ccc3o2)CCN1C(=O)c1c(-c2ccccc2)nn2cccnc12` [Example 65], the inhibition at 1 µM worked out at 80%.
Take `Cc1cc(C)nc(N2CC[C@@H](C)N(C(=O)c3c(-c4ccccc4)nn4c3COCC4)CC2)n1` [Example 72]: the inhibition at 1 µM came to 65%.
Consider `C[C@@H]1CCN(c2nc3cc(Cl)ccc3o2)CCN1C(=O)c1c(-c2ccccc2)nn2c1CCCC2` [Example 10], for which the inhibition at 1 µM came out at 55.1%.
Same read-out and setting: the result for `O=C(c1c(-c2ccccc2F)nn2ccccc12)N1CC2CN(c3nc4cc(Cl)ccc4o3)CC2C1` (stereo not drawn) [Example 47] reads 89%; that for `Cc1cc(C)nc(N2CC[C@@H](C)N(C(=O)c3nc4ccccn4c3-c3ccccc3)CC2)n1` [Example 69], 34%.

The next assay has as its target T2, human orexin-1 receptor (Homo sapiens, UniProt O43613).
T2 construct: expressed in transfected cells; host or cells: CHO cells (G418 selection)
T2 sequence (O43613 1-425): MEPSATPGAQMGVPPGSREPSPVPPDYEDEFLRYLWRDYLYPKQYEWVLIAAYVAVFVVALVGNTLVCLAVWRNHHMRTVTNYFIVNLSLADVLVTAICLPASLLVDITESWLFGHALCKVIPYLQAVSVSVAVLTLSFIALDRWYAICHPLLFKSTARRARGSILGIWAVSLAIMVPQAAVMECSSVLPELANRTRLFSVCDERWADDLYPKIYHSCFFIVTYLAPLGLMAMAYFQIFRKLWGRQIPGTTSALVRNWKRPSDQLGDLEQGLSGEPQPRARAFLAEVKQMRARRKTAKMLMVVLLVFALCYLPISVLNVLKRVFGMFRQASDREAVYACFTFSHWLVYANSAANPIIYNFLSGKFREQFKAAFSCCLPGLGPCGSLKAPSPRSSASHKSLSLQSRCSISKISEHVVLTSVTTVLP
In words: Intracellular calcium (FLIPR) antagonist assay, CHO cells expressing human orexin-1 receptor, 3 nM orexin-A. The assay is classed as cell-based. The note with it: 1 uM compound, orexin-A 3 nM.
With `COc1ccc(N2CC[C@@H](C)N(C(=O)c3c(-c4ccccn4)nn4ccccc34)CC2)nc1` [Example 93], the “OXIR % Inh. @ 1 uM” value was 36%.

Still in this assay, the particulars now being: CHO, 1 uM compound, orexin-A 3 nM, read-out: OXIR % Inh. @ 1 uM.
`C[C@@H]1CCN(c2ccc(C(F)(F)F)cn2)CCN1C(=O)c1c(-c2ccccc2)nn2c1COCC2` [Example 18]: the inhibition at 1 µM was found to be 82.5%.
In the case of `Cc1cc(C)nc(N2CC3CN(C(=O)c4c(-c5ccccc5F)nn5ccccc45)CC3C2)n1` (stereo not drawn) [Example 44], the inhibition at 1 µM turned out to be 19.2%.
Same read-out and setting: the result for `O=C(c1c(-c2ccc(F)cc2)nn2ccccc12)N1CC2CN(c3ccc(C(F)(F)F)cn3)CC2C1` (stereo not drawn) [Example 46] reads 53.9%.
In the case of `COc1ccc(N2CC[C@@H](C)N(C(=O)c3c(-c4ncccn4)nn4ccccc34)CC2)nc1` [Example 92], the inhibition at 1 µM is 25%.
With `C[C@@H]1CCN(c2cnc(C(F)(F)F)cn2)CCN1C(=O)c1nn2cccnc2c1-c1ccccc1` [Example 85], the inhibition at 1 µM came out at 93%.
As to `COc1ccc(N2CC[C@@H](C)N(C(=O)c3c(-c4ccccc4)nn4c3COCC4)CC2)nn1` [Example 11], the inhibition at 1 µM worked out at 12.2%.
For the molecule `C[C@@H]1CCN(c2nc3cc(Cl)ccc3o2)CCN1C(=O)c1c(-c2ccccc2)nn2cccnc12` [Example 65], the inhibition at 1 µM was determined as 99%.
As for `Cc1cc(C)nc(N2CC[C@@H](C)N(C(=O)c3c(-c4ccccc4)nn4c3COCC4)CC2)n1` [Example 72], the inhibition at 1 µM turned out to be 28%.
The same measure, in the same setting: the result for `C[C@@H]1CCN(c2nc3cc(Cl)ccc3o2)CCN1C(=O)c1c(-c2ccccc2)nn2c1CCCC2` [Example 10] reads 85.9%.
In the case of `O=C(c1c(-c2ccccc2F)nn2ccccc12)N1CC2CN(c3nc4cc(Cl)ccc4o3)CC2C1` (stereo not drawn) [Example 47], the inhibition at 1 µM is 97%.
The same measure, in the same setting: with `Cc1cc(C)nc(N2CC[C@@H](C)N(C(=O)c3nc4ccccn4c3-c3ccccc3)CC2)n1` [Example 69] the figure was 23%.
